Assay results as given in ChEMBL document CHEMBL5150031, “Targeting osteoarthritis-associated galectins and an induced effector class by a ditopic bifunctional reagent: Impact of its glycan part on binding measured in the tissue context” (Bioorg Med Chem, 2022).
Activity calls are given as the source filed them. The rule behind the calls is not given here.

Assays:
[1] = Inhibition of biotinylated Galectin-1/3 (unknown origin) preincubated for 30 mins at room temperature followed by incubation at 37 degC for 1 hr by surface-immobilized glycoprotein asialofetuin based solid phase assay; design: species or system Homo sapiens
Homo sapiens [2] = organism: Homo sapiens; assay: Inhibition of biotinylated Galectin-1/3 (unknown origin) preincubated for 30 mins at room temperature followed by incubation at 37 degC for 1 hr by surface-immobilized glycoprotein asialofetuin based solid phase assay relative to lactose; conditions: time 90.0 min
[3] = target: Galectin-3 (Mus musculus) (UniProt P16110); assay: Inhibition of biotinylated galectin-3 binding to C57BL/6 mouse kidney cortex at 125 to 500 uM of lactose residue per molecule preincubated for 1 hr followed by incubation with tissue material for overnight by light microsocopy; type: tissue-based; conditions: dose 125-500 µM
Chain of Galectin-3 (Mus musculus) (P16110 whole entry): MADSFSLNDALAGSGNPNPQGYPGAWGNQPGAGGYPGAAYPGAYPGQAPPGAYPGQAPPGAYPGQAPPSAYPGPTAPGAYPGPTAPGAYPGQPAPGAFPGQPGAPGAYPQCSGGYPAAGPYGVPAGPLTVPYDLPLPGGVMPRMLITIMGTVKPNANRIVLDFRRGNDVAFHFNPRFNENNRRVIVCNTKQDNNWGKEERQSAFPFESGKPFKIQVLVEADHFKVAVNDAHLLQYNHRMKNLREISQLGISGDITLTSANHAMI

[4] = target: Galectin-3 (Mus musculus) (UniProt P16110); assay: Inhibition of biotinylated galectin-3 binding to C57BL/6 mouse kidney medulla at 125 to 500 uM of lactose residue per molecule preincubated for 1 hr followed by incubation with tissue material for overnight by light microsocopy; type: tissue-based; conditions: Renal medulla, dose 125-500 µM
[5] = target: Galectin-1 (Mus musculus) (UniProt P16045); assay: Inhibition of biotinylated galectin-1 binding to C57BL/6 mouse kidney at 125 to 500 uM of lactose residue per molecule preincubated for 1 hr followed by incubation with tissue material for overnight by light microsocopy; type: tissue-based; conditions: dose 125-500 µM
Chain of Galectin-1 (Mus musculus) (P16045 whole entry): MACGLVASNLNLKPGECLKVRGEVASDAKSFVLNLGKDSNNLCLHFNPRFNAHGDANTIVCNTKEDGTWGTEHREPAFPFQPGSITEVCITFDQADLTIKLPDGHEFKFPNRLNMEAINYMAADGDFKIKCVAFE

Collagenase 3 [6] = target: T1, Collagenase 3 (Homo sapiens, UniProt P45452); assay: Inhibition of MMP13 (unknown origin) assessed as reduction in cleavage of colorimetric substrate incubated for 1 hr by colorimetric analysis
[7] = target: Galectin-1 (Homo sapiens) (UniProt P09382); assay: Inhibition of Alexa-Fluor-488 conjugated galectin-1 binding to human osteoarthritic cartilage at 4 mM of sugar preincubated for 1 hr followed by incubation with tissue material for overnight by 2-colour fluorescence microsocopy; type: tissue-based
Chain of Galectin-1 (Homo sapiens) (P09382 whole entry): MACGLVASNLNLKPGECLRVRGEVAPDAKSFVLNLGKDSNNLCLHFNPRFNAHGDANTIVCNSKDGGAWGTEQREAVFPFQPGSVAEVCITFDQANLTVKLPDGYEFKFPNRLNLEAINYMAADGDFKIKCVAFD

[8] = target: Galectin-3 (Homo sapiens) (UniProt P17931); assay: Inhibition of Alexa-Fluor-647 conjugated galectin-3 binding to human osteoarthritic cartilage at 4 mM of sugar preincubated for 1 hr followed by incubation with tissue material for overnight by 2-colour fluorescence microsocopy; type: tissue-based
Chain of Galectin-3 (Homo sapiens) (P17931 whole entry): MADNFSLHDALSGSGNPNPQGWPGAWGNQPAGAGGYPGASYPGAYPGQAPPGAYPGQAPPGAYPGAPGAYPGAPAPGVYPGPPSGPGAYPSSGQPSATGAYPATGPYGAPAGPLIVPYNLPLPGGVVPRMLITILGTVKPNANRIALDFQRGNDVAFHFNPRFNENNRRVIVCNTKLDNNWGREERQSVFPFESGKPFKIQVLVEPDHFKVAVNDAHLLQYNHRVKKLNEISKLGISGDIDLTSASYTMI

Homo sapiens [9] = organism: Homo sapiens; assay: Inhibition of Alexa-Fluor-488 conjugated galectin-1/Alexa-Fluor-647 conjugated galectin-3 binding to human osteoarthritic cartilage at 4 mM of sugar preincubated for 1 hr followed by incubation with tissue material for overnight by 2-colour fluorescence microsocopy; type: tissue-based
Collagenase 3 [10] = target: T1, Collagenase 3; assay: Inhibition of MMP13 (unknown origin) assessed as reduction in cleavage of colorimetric substrate by measuring remaining activity at 10 nM incubated for 1 hr by colorimetric analysis relative to control
Collagenase 3 [11] = target: T1, Collagenase 3; assay: Inhibition of MMP13 (unknown origin) assessed as reduction in cleavage of colorimetric substrate by measuring remaining activity at 100 nM incubated for 1 hr by colorimetric analysis relative to control
Collagenase 3 [12] = target: T1, Collagenase 3; assay: Inhibition of MMP13 (unknown origin) assessed as reduction in cleavage of colorimetric substrate by measuring remaining activity at 1000 nM incubated for 1 hr by colorimetric analysis relative to control
[13] = target: Galectin-1 (Mus musculus) (UniProt P16045); assay: Inhibition of Alexa-Fluor-488 conjugated galectin-1 binding to C57BL/6 mouse kidney cortex at 2 mM of sugar preincubated for 1 hr followed by incubation with tissue material for overnight by 2-colour fluorescence microsocopy; type: tissue-based
[14] = target: Galectin-1 (Mus musculus) (UniProt P16045); assay: Inhibition of Alexa-Fluor-488 conjugated galectin-1 binding to C57BL/6 mouse kidney medulla at 2 mM of sugar preincubated for 1 hr followed by incubation with tissue material for overnight by 2-colour fluorescence microsocopy; type: tissue-based; conditions: Renal medulla
[15] = target: Galectin-3 (Mus musculus) (UniProt P16110); assay: Inhibition of Alexa-Fluor-647 conjugated galectin-3 binding to C57BL/6 mouse kidney cortex at 2 mM of sugar preincubated for 1 hr followed by incubation with tissue material for overnight by 2-colour fluorescence microsocopy; type: tissue-based
[16] = target: Galectin-3 (Mus musculus) (UniProt P16110); assay: Inhibition of Alexa-Fluor-647 conjugated galectin-3 binding to C57BL/6 mouse medulla at 2 mM of sugar preincubated for 1 hr followed by incubation with tissue material for overnight by 2-colour fluorescence microsocopy; type: tissue-based; conditions: Renal medulla
Mus musculus [17] = organism: Mus musculus; assay: Inhibition of Alexa-Fluor-488 conjugated galectin-1/Alexa-Fluor-647 conjugated galectin-3 binding to C57BL/6 mouse kidney cortex at 2 mM of sugar preincubated for 1 hr followed by incubation with tissue material for overnight by 2-colour fluorescence microsocopy; type: tissue-based
Mus musculus [18] = organism: Mus musculus; assay: Inhibition of Alexa-Fluor-488 conjugated galectin-1/Alexa-Fluor-647 conjugated galectin-3 binding to C57BL/6 mouse medulla at 2 mM of sugar preincubated for 1 hr followed by incubation with tissue material for overnight by 2-colour fluorescence microsocopy; type: tissue-based; conditions: Renal medulla

| Molecule | IC50 [1] [µM] | Ratio (Homo sapiens [2]) | inhibition [3] | inhibition [4] | inhibition [5] | IC50 (Collagenase 3 [6]) [µM] | inhibition [7] | inhibition [8] | inhibition (Homo sapiens [9]) | also measured |
| --- | --- | --- | --- | --- | --- | --- | --- | --- | --- | --- |
| LACTOSE, ANHYDROUS [listing 1 of 2 here] | 1070 | – | – | – | – | – | – | – | – | – |
| OC[C@H]1O[C@@H](O[C@H]2[C@H](O)[C@@H](O)[C@H](n3cc(COC[C@@H](OCc4cn([C@@H]5O[C@H](CO)[C@@H](O[C@@H]6O[C@H](CO)[C@H](O)[C@H](O)[C@H]6O)[C@H](O)[C@H]5O)nn4)[C@@H](OCc4cn([C@@H]5O[C@H](CO)[C@@H](O[C@@H]6O[C@H](CO)[C@H](O)[C@H](O)[C@H]6O)[C@H](O)[C@H]5O)nn4)[C@H](OCc4cn([C@@H]5O[C@H](CO)[C@@H](O[C@@H]6O[C@H](CO)[C@H](O)[C@H](O)[C@H]6O)[C@H](O)[C@H]5O)nn4)[C@@H](COCc4ccccc4)OCc4ccccc4)nn3)O[C@@H]2CO)[C@H](O)[C@@H](O)[C@H]1O | 220 | 4.9 | Active | Active | Active | – | – | – | – | – |
| LACTOSE, ANHYDROUS [listing 2 of 2 here] | – | – | – | – | – | – | Active | Active | Active | – |
| COc1ccc(S(=O)(=O)N(CCCCCCNC(=O)CCCCC(=O)NCCN(CCC(=O)NCCNC(=O)CCCCC(=O)NCCO[C@@H]2O[C@H](CO)[C@@H](O[C@@H]3O[C@H](CO)[C@H](O)[C@H](O)[C@H]3O)[C@H](O)[C@H]2O)CCC(=O)NCCNC(=O)CCCCC(=O)NCCO[C@@H]2O[C@H](CO)[C@@H](O[C@@H]3O[C@H](CO)[C@H](O)[C@H](O)[C@H]3O)[C@H](O)[C@H]2O)CC(=O)NO)cc1 | 200 | 5.4 | Active | Active | Active | 0.0013 | Active | Active | Active | Activity (Collagenase 3 [10]): 15.2%; Activity (Collagenase 3 [11]): 3.2%; Activity (Collagenase 3 [12]): 2.7%; inhibition [13]: Active; inhibition [14]: Active; inhibition [15]: Active; inhibition [16]: Active; inhibition (Mus musculus [17]): Active; inhibition (Mus musculus [18]): Active |

More lines, main results first:

| IC50 [1] [µM] | Ratio (Homo sapiens [2]) | inhibition [3] | inhibition [4] | inhibition [5] | IC50 (Collagenase 3 [6]) [µM] | inhibition [7] | inhibition [8] | inhibition (Homo sapiens [9]) | Molecule | also measured |
| --- | --- | --- | --- | --- | --- | --- | --- | --- | --- | --- |
| 420 | 2.5 | Active | Active | Active | – | – | – | – | OC[C@H]1O[C@@H](O[C@H]2[C@H](O)[C@@H](O)[C@H](n3cc(COC[C@@H](OCc4cn([C@@H]5O[C@H](CO)[C@@H](O[C@@H]6O[C@H](CO)[C@H](O)[C@H](O)[C@H]6O)[C@H](O)[C@H]5O)nn4)[C@@H](O)[C@H](O)[C@@H](COCc4cn([C@@H]5O[C@H](CO)[C@@H](O[C@@H]6O[C@H](CO)[C@H](O)[C@H](O)[C@H]6O)[C@H](O)[C@H]5O)nn4)OCc4cn([C@@H]5O[C@H](CO)[C@@H](O[C@@H]6O[C@H](CO)[C@H](O)[C@H](O)[C@H]6O)[C@H](O)[C@H]5O)nn4)nn3)O[C@@H]2CO)[C@H](O)[C@@H](O)[C@H]1O | – |
| – | – | – | – | – | 0.0052 | – | – | – | COc1ccc(S(=O)(=O)N(CC(=O)NO)CC(C)C)cc1 | – |
